# Assay results taken from PMC7265341, “Quantifying CDK inhibitor selectivity in live cells” (Nature Communications, 2020).
# Where two headings read alike, the source gives them in different places.
# Experiments:
# [1] = target: CDK11B/Cyclin L2 (Homo sapiens, UniProt P21127); assay: NanoBRET live-cell target engagement, CDK11B-NanoLuc/Cyclin L2 in HEK-293; assay type: binding; conditions: 10µM
# [2] = target: CDK3/Cyclin E1 (Homo sapiens, UniProt Q00526); assay: NanoBRET live-cell target engagement, CDK3-NanoLuc/Cyclin E1 in HEK-293; assay type: binding; conditions: 10µM
# [3] = target: CDK9/Cyclin K (Homo sapiens, UniProt P50750); assay: NanoBRET live-cell target engagement, NanoLuc-CDK9/Cyclin K in HEK-293; assay type: binding; conditions: CDK9/K, 10µM
# [4] = target: CDK6/Cyclin D1 (Homo sapiens, UniProt Q00534); assay: NanoBRET live-cell target engagement, NanoLuc-CDK6/Cyclin D1 in HEK-293; assay type: binding; conditions: CDK6/D1
# [5] = target: CDK5/CDK5R1 (Homo sapiens, UniProt Q00535); assay: NanoBRET live-cell target engagement, CDK5-NanoLuc/CDK5R1 in HEK-293; assay type: binding; conditions: CDK5/CDK5R1, 10µM
# [6] = target: CDK16/Cyclin Y (Homo sapiens, UniProt Q00536); assay: NanoBRET live-cell target engagement, CDK16-NanoLuc/Cyclin Y in HEK-293; assay type: binding; conditions: for IC50: CDK16/Y
# [7] = target: CDK4/Cyclin D1 (Homo sapiens, UniProt P11802); assay: NanoBRET live-cell target engagement, NanoLuc-CDK4/Cyclin D1 in HEK-293; assay type: binding; conditions: CDK4/D1
# [8] = target: CDK18/Cyclin Y (Homo sapiens, UniProt Q07002); assay: NanoBRET live-cell target engagement, CDK18-NanoLuc/Cyclin Y in HEK-293; assay type: binding; conditions: 10µM
# [9] = target: CDK19/Cyclin C (Homo sapiens, UniProt Q9BWU1); assay: NanoBRET live-cell target engagement, NanoLuc-CDK19/Cyclin C in HEK-293; conditions: 10µM
# [10] = target: CDK2/Cyclin E1 (Homo sapiens, UniProt P24941); assay: NanoBRET live-cell target engagement, CDK2-NanoLuc/Cyclin E1 in HEK-293; assay type: binding; conditions: CDK2/E1, 10µM
# [11] = average of replicates, read-out: Inhibition at 10µM (%) Average
# [12] = read-out: Inhibition at 10µM (%) Replicate 1
# [13] = read-out: Inhibition at 10µM (%) Replicate 2
# [14] = n=3 average ± SEM, n=2 average to 2 significant figures, read-out: IC50 (nM) Average*
# [15] = read-out: IC50 (nM) Replicate 1
# [16] = read-out: IC50 (nM) Replicate 2
# [17] = read-out: IC50 (nM) Replicate 3
# CDK4/Cyclin D1, sequence (P11802 whole entry): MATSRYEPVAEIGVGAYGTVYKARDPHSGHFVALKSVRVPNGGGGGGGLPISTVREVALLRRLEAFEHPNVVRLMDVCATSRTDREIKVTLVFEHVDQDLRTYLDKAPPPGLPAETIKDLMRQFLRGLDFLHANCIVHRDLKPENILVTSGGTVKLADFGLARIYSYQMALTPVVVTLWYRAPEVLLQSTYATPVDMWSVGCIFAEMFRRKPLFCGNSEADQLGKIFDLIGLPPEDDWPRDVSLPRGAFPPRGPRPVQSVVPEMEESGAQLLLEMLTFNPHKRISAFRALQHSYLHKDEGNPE
# CDK4/Cyclin D1, sequence (P24385 whole entry partner): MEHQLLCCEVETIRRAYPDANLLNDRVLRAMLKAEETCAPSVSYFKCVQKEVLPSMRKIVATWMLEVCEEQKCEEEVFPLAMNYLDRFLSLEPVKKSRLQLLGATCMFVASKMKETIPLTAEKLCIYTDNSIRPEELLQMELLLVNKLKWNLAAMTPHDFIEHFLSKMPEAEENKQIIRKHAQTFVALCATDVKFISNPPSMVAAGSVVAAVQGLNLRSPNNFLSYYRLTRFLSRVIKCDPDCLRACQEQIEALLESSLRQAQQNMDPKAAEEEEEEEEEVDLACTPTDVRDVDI
# CDK5/CDK5R1, sequence (Q00535 whole entry): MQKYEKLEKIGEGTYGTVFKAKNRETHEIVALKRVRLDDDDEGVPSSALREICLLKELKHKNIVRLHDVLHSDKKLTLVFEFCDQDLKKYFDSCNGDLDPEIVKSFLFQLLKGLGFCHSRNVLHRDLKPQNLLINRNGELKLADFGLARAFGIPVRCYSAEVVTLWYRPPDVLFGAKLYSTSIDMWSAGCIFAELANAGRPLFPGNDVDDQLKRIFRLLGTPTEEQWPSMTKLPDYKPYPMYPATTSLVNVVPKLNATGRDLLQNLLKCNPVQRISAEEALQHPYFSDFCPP
# CDK5/CDK5R1, sequence (Q15078 whole entry partner): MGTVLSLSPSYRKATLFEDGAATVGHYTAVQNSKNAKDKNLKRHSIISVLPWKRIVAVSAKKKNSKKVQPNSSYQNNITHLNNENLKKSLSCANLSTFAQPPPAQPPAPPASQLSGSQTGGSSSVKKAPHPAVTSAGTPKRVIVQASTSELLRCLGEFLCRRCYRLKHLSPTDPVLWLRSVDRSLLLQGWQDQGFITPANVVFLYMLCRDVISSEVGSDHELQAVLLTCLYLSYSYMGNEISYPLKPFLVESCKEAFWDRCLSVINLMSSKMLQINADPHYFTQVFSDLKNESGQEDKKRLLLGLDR
# CDK19/Cyclin C, sequence (Q9BWU1 whole entry): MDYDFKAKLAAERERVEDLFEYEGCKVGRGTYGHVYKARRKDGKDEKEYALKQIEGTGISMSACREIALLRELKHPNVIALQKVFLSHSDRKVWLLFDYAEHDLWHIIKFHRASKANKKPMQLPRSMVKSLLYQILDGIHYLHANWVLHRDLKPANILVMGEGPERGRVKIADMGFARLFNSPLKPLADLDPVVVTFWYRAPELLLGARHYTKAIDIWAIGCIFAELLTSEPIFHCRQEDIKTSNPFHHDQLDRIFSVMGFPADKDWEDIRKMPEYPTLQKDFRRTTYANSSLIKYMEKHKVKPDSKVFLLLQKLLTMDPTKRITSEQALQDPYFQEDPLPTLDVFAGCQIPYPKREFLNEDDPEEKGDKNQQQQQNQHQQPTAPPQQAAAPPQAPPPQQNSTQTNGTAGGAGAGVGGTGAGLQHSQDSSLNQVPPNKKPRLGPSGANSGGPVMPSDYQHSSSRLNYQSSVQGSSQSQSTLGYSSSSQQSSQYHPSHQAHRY
# CDK19/Cyclin C, sequence (P24863 whole entry partner): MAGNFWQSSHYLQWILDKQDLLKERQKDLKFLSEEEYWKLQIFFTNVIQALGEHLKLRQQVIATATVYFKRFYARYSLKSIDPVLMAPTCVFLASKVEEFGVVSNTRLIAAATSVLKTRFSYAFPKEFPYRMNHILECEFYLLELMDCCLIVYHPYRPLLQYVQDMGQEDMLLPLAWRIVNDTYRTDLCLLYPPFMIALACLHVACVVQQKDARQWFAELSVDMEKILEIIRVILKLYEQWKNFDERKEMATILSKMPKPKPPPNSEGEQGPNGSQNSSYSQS
# CDK16/Cyclin Y, sequence (Q00536 whole entry): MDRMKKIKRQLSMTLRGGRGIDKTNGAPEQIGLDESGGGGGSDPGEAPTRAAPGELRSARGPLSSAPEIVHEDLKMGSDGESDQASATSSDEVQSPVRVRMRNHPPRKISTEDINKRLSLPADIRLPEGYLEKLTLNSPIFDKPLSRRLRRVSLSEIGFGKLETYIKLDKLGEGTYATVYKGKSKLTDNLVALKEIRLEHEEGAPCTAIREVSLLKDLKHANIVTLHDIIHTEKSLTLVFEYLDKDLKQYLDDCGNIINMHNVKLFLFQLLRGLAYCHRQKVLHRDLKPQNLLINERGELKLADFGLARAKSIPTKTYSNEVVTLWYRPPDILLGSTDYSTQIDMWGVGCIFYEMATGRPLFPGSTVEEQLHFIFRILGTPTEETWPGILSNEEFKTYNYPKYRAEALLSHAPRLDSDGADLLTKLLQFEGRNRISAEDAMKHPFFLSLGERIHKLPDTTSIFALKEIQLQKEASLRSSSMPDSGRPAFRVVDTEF
# CDK16/Cyclin Y, sequence (Q8ND76 whole entry partner): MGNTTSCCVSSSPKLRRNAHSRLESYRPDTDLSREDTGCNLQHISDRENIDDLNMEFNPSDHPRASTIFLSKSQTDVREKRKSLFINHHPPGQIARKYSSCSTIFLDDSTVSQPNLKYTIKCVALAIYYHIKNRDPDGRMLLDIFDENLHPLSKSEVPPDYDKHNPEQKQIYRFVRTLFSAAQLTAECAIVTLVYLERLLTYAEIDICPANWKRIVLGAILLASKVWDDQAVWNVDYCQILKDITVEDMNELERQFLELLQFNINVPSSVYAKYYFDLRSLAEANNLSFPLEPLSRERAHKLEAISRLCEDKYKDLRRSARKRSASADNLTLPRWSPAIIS
# CDK3/Cyclin E1, sequence (Q00526 whole entry): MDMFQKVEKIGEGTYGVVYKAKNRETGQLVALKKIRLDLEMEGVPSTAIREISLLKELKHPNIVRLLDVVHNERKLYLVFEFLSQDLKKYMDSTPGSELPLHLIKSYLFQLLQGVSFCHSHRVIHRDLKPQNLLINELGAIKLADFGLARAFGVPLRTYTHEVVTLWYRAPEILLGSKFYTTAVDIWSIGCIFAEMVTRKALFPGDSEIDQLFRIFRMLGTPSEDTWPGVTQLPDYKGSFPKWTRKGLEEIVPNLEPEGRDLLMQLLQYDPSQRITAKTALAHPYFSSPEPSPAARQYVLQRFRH
# CDK3/Cyclin E1, sequence (P24864 whole entry partner): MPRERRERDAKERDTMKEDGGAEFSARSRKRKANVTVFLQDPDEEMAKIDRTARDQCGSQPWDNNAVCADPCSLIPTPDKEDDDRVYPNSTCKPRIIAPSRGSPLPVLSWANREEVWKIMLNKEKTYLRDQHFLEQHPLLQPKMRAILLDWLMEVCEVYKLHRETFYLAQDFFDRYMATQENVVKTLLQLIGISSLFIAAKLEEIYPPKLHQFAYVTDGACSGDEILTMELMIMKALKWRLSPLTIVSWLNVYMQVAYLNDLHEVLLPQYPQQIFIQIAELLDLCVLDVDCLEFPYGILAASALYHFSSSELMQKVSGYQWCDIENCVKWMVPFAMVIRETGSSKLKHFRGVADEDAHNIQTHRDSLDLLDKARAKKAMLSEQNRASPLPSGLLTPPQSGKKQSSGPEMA
# CDK9/Cyclin K, sequence (P50750 whole entry): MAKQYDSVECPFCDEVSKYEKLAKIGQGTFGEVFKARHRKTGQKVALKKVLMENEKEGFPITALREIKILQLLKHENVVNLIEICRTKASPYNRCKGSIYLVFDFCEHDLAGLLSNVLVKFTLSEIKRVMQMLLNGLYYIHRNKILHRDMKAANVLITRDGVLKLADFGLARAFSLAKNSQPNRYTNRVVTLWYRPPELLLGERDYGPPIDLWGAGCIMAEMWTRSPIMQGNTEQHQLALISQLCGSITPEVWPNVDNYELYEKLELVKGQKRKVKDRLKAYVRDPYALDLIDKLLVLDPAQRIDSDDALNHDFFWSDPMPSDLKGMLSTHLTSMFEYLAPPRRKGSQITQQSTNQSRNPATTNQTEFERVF
# CDK9/Cyclin K, sequence (O75909 whole entry partner): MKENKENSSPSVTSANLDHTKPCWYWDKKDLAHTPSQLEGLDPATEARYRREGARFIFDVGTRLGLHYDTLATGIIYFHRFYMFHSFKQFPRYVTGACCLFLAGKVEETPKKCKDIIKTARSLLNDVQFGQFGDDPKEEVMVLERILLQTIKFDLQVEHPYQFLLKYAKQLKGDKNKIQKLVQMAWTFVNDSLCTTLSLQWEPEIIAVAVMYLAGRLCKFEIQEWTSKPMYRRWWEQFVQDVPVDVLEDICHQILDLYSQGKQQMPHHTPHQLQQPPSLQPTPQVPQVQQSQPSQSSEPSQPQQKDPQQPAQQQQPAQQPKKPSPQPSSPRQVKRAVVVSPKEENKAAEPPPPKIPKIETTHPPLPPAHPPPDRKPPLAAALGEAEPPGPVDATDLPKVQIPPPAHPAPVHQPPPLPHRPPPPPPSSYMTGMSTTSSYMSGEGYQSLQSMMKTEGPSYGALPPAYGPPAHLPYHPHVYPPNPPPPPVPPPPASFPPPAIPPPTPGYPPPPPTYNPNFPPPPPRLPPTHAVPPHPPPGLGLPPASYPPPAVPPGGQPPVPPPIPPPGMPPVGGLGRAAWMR
# CDK6/Cyclin D1, sequence (Q00534 whole entry): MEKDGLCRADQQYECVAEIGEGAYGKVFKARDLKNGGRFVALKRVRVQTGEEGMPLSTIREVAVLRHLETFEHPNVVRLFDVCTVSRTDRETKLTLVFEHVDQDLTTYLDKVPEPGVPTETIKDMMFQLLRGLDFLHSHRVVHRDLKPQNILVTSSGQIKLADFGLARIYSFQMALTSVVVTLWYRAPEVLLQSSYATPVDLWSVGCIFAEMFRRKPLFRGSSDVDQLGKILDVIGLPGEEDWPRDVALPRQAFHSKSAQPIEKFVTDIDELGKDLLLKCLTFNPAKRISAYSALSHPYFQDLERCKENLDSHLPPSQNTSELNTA
# CDK6/Cyclin D1, sequence (P24385 whole entry partner): as the sequence (P24385 whole entry partner) above
compound,measurement,setting,value
C[C@H]1CC[C@H](n2c3cnccc3c3cnc(Nc4ccc5c(n4)CCN(C(=O)CO)C5)nc32)CC1 [AMG 925],inhibition at 10 µM,"[1]; read-out: Inhibition at 10µM (%) Average, CDK11b/L2, average of replicates",8.5%
same,inhibition at 10 µM,"[1]; read-out: Inhibition at 10µM (%) Replicate 1, CDK11b/L2",5.1%
same,inhibition at 10 µM,"[1]; read-out: Inhibition at 10µM (%) Replicate 2, CDK11b/L2",11.9%
same,inhibition at 10 µM,"[2]; read-out: Inhibition at 10µM (%) Average, CDK3/E1, average of replicates",54.2%
same,inhibition at 10 µM,"[2]; read-out: Inhibition at 10µM (%) Replicate 1, CDK3/E1",39.2%
same,inhibition at 10 µM,"[2]; read-out: Inhibition at 10µM (%) Replicate 2, CDK3/E1",69.3%
same,inhibition at 10 µM,[3]; [11],39.8%
same,inhibition at 10 µM,[3]; [12],12.7%
same,inhibition at 10 µM,[3]; [13],67%
same,inhibition at 10 µM,[4]; [11],99.1%
same,inhibition at 10 µM,[4]; [12],98.6%
same,inhibition at 10 µM,[4]; [13],99.5%
same,IC50,[4]; [14],7 ± 3 nM
same,IC50,[4]; [15],2.5 nM
same,IC50,[4]; [16],3.9 nM
same,IC50,[4]; [17],13 nM
same,inhibition at 10 µM,[5]; [11],22.1%
same,inhibition at 10 µM,[5]; [12],24.7%
same,inhibition at 10 µM,[5]; [13],19.6%
same,IC50,[6]; [14],200 ± 100 nM
same,IC50,[6]; [15],103 nM
same,IC50,[6]; [16],420 nM
same,IC50,[6]; [17],188 nM
same,inhibition at 10 µM,"[6]; read-out: Inhibition at 10µM (%) Replicate 1, CDK16/Y",64.2%
same,inhibition at 10 µM,"[6]; read-out: Inhibition at 10µM (%) Replicate 2, CDK16/Y",56.2%
same,inhibition at 10 µM,[7]; [11],92.7%
same,inhibition at 10 µM,[7]; [12],97.7%
same,inhibition at 10 µM,[7]; [13],87.7%
same,IC50,[7]; [14],6 ± 2 nM
same,IC50,[7]; [15],3.2 nM
same,IC50,[7]; [16],4.9 nM
same,IC50,[7]; [17],11 nM
same,inhibition at 10 µM,"[8]; read-out: Inhibition at 10µM (%) Average, CDK18/Y, average of replicates",28.7%
same,inhibition at 10 µM,"[8]; read-out: Inhibition at 10µM (%) Replicate 1, CDK18/Y",11.9%
same,inhibition at 10 µM,"[8]; read-out: Inhibition at 10µM (%) Replicate 2, CDK18/Y",45.6%
same,inhibition at 10 µM,"[9]; read-out: Inhibition at 10µM (%) Average, CDK19/C, average of replicates",16.1%
same,inhibition at 10 µM,"[9]; read-out: Inhibition at 10µM (%) Replicate 1, CDK19/C",17.8%
same,inhibition at 10 µM,"[9]; read-out: Inhibition at 10µM (%) Replicate 2, CDK19/C",14.4%
same,inhibition at 10 µM,[10]; [11],63.9%
same,inhibition at 10 µM,[10]; [12],40.8%
same,inhibition at 10 µM,[10]; [13],87%
